Three molecules from US20120277265A1, “NOVEL POLYQUINOLINE DERIVATIVES AND THE THERAPEUTIC USE THEREOF” (CENTRE NATIONAL DE LA RECHERCHE SCIENTIFIQUE (C.N.R.S.), priority 2005, published 2012) can be followed below.

In data set [1] the test system is Salmonella tiphimurium TA100. Nature of the data set: AMES test, TA100. From the text:
(§1) AMES test: The method is adapted from D. M. Maron and B. N. Ames, Mutat.
(§2) The test involves evaluating the potential of the tested molecules to induce mutation which is reverse to the histidine locus of these lines. These two lines were provided by Dr. Bruce N. Ames (University of California, Berkeley, USA). They are resistant to Ampicillin and sensitive to Tetracycline. They are not mutant toward rfa, UvγV and UvγA. The line TA98 (his D3052) contains a mutation of reading phase (GC) whereas the line TA100 (his G46) contains a substitution of base pair (GC).
The compounds to be tested were dissolved in 100% of DMSO (the solvent) and diluted logarithmically (by a factor of 10) so as to obtain 4 test concentrations of 30,000; 3,000; 300 and 30 μg/ml. Each series of 0.1 ml of stock solution to be tested, 0.1 ml of test line and of culture medium with or without 0.5 ml of enzymatic homogenate (S9) of rat liver microsome were mixed with 2 ml of molten agarose (containing 0.5 mM of histidine and 0.5 mM of biotin). This mixture was placed on the surface of a plate of minimal agarose glucose medium (30 ml for each Petri dish) so as to obtain final concentrations of compound to be tested of 3,000; 300; 30 and 3 μγ/plate. The plates were then incubated at 37° C. for 48 hours. […] The revertant colonies of the test lines were counted using a colony counter (Sigma). […] A compound inducing a number of colonies <50% of cells obtained for the solvent alone was deemed to be toxic for the bacteria tested. All the experiments were carried out in triplicate.

Data set [2] relates to TA98 and TA100 Salmonella strains. Nature of the data set: AMES test, statements on both lines. Particulars: adapted Ames test, TA98 and/or TA100, absence or presence of S9.
Description: as §1, §2
The compounds to be tested were dissolved in 100% of DMSO (the solvent) and diluted logarithmically (by a factor of 10) so as to obtain 4 test concentrations of 30,000; 3,000; 300 and 30 μg/ml. Each series of 0.1 ml of stock solution to be tested, 0.1 ml of test line and of culture medium with or without 0.5 ml of enzymatic homogenate (S9) of rat liver microsome were mixed with 2 ml of molten agarose (containing 0.5 mM of histidine and 0.5 mM of biotin). This mixture was placed on the surface of a plate of minimal agarose glucose medium (30 ml for each Petri dish) so as to obtain final concentrations of compound to be tested of 3,000; 300; 30 and 3 μγ/plate. The plates were then incubated at 37° C. for 48 hours. […] The revertant colonies of the test lines were counted using a colony counter (Sigma). […]

Data set [3] can be described thus: Number of ZnCl2 equivalents for the ligand to be entirely in the form of Zn(II) complex. Type of data set: binding. Particulars: competition with the tris buffer and the DMSO.
The mark [4] stands for this setting: value per plate, Addition of S9: no.
Where [5] appears, read: value per plate, Addition of S9: yes.

Structures are written as SMILES. Where two headings read alike, the source gives them in different places. Some results are limits rather than exact numbers.

As to `CC(C)(c1ccc2cccc(O)c2n1)c1ccc2cccc(O)c2n1` [Compound 3, 2,2′-(2,2-propanediyl)-bis(8-hydroxyquinoline)], in data set [1] (setting [4]), the “TA100 Cytotoxicity” value is more than 3000 µg and the “TA100 Mutagenic effect” value is more than 3000 µg. In addition, in data set [1] (setting [5]), the “TA100 Cytotoxicity” value is more than 3000 µg and the “TA100 Mutagenic effect” value was more than 3000 µg. For the same molecule, the “mutagenic or bactericidal effect” value in data set [2] is “no mutagenic or bactericidal effect”.

Molecule `Oc1cccc2ccc(C(F)(F)c3ccc4cccc(O)c4n3)nc12` [Compound 5, 2,2′-(Difluoromethanediyl)-bis(8-hydroxyquinoline)] had a bactericidal effect in data set [1] (TA100 line in the absence of S9) not below 300 μg/plate. Moreover, the results for the “TA100 Cytotoxicity” value in data set [1] (setting [4]) and in data set [1] (setting [5]) were 300 µg and more than 3000 µg, respectively. The “TA100 Mutagenic effect” value in data set [1] (setting [5]) was more than 3000 µg.

For `c1cnc2c(Nc3cccc4cccnc34)cccc2c1` [Compound 12, Bis(8-quinoline)amine], in data set [3], the “number of ZnCl2 equivalent for 15 μM of ligand to be entirely in the form of Zn(II) complex” value is 100 eq ZnCl2. The “TA100 Mutagenic effect” value in data set [1] is more than 3000 µg. Also, the “TA100 Cytotoxicity” value in data set [1] (setting [4]) and in data set [1] (setting [5]) was more than 3000 µg each time.
